In this assay the test system is NBD1/3D. Nature of the assay: Aggregation analysis using differential static light scattering (DSLS), NBD1 thermal stability. The class given is binding, Human. To be noted: ΔTagg versus DMSO control; compound at 100 μM. The method, boiled down: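 Thermal stabilisation reported as ΔTagg, i.e. aggregation temperature relative to averaged DMSO wells. Tagg came from the inflection of differential static light scattering imaged 25–70 °C while NBD1 (0.2 mg/ml, Tris pH 7.6 buffer containing ATP, MgCl2, DTT, glycerol) was ramped 1 °C/min.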

`Cc1c(Oc2ccc(F)c(-c3nc(Cc4csc(CCC(=O)O)n4)c[nH]3)c2)c(F)cc2[nH]ccc12` [Example 89, 3-(4-((2-(2-Fluoro-5-((6-fluoro-4-methyl-1H-indol-5-yl)oxy)phenyl)-1H-imidazol-4-yl)methyl)thiazol-2-yl)propanoic acid]: the “DSLS NBD1/3D Human Stability delta-T (° C.) @ 100 (μM)” value (“DSLS NBD1/3D Human Stability delta-T” for short) is on record as “B (B: 5-10° C.)”.

For `Cc1c(Oc2ccc(F)c(-c3ncc(Cc4cccc(CCC(=O)O)n4)[nH]3)c2)c(F)cc2[nH]ccc12` [Example 90, 3-(6-((2-(2-fluoro-5-((6-fluoro-4-methyl-1H-indol-5-yl)oxy)phenyl)-1H-imidazol-5-yl)methyl)pyridin-2-yl)propanoic acid], the “DSLS NBD1/3D Human Stability delta-T” value is given as “B (B: 5-10° C.)”.

With `Cc1c(Oc2ccc(F)c(-c3ncc(Cc4cccc(CC(=O)O)n4)[nH]3)c2)c(F)cc2[nH]ccc12` [Example 91, 2-(6-((2-(2-fluoro-5-((6-fluoro-4-methyl-1H-indol-5-yl)oxy)phenyl)-1H-imidazol-5-yl)methyl)pyridin-2-yl)acetic acid], the “DSLS NBD1/3D Human Stability delta-T” value was “B (B: 5-10° C.)”.

For the molecule `CP(C)(=O)c1c(Oc2cccc(-c3nc(Cc4cccc(CCC(=O)O)c4)cs3)c2)c(F)cc2[nH]ccc12` [Example 92, 3-(3-((2-(3-((4-(Dimethylphosphoryl)-6-fluoro-1H-indol-5-yl)oxy)phenyl)thiazol-4-__yl)methy)phenyl)propanoic acid], the “DSLS NBD1/3D Human Stability delta-T” value is recorded as “B (B: 5-10° C.)”.

In the case of `CS(=O)(=O)c1c(Oc2ccc(F)c(-c3nc(Cc4cccc(CCC(=O)O)c4)cs3)c2)c(F)cc2[nH]ccc12` [Example 93, 3-(3-((2-(2-fluoro-5-((6-fluoro-4-(methylsulfonyl)-1H-indol-5-yl)oxy)phenyl)thiazol-4-yl)methyl)phenyl)propanoic acid], the “DSLS NBD1/3D Human Stability delta-T” value was “B (B: 5-10° C.)”.

Turning to `O=C(O)CCc1cccc(C2(c3csc(-c4cc(Oc5c(F)cc6[nH]ccc6c5F)ccc4F)n3)CC(F)(F)C2)c1` [Example 94, 3-(3-(1-(2-(5-((4,6-difluoro-1H-indol-5-yl)oxy)-2-fluorophenyl)thiazol-4-yl)-3,3-difluorocyclobutyl)phenyl)propanoic acid], the “DSLS NBD1/3D Human Stability delta-T” value was “B (B: 5-10° C.)”.

For `O=C(O)CCc1cccc(C2(c3csc(-c4cccc(Oc5c(F)cc6[nH]ccc6c5F)c4)n3)CCOCC2)c1` [Example 95, 3-(3-(4-(2-(3-((4,6-difluoro-1H-indol-5-yl)oxy)phenyl)thiazol-4-yl)tetrahydro-2H-pyran-4-yl)phenyl)propanoic acid], the “DSLS NBD1/3D Human Stability delta-T” value is “B (B: 5-10° C.)”.

For `CC(O)(c1cccc(CCC(=O)O)c1)c1cnc(-c2cc(Oc3c(F)cc4[nH]ccc4c3P(C)(C)=O)ccc2F)[nH]1` (stereo not shown) [Example 96, 3-(3-(1-(2-(5-((4-(Dimethylphosphoryl)-6-fluoro-1H-indol-5-yl)oxy)-2-fluorophenyl)-1H-imidazol-5-yl)-1-hydroxyethyl)phenyl)propanoic acid], the “DSLS NBD1/3D Human Stability delta-T” value is recorded as “B (B: 5-10° C.)”.

For the molecule `CC(O)(c1cccc(CCC(=O)O)c1)c1csc(-c2cccc(Oc3c(F)cc4[nH]ccc4c3P(C)(C)=O)c2)n1` (stereo not shown) [Example 98, 3-(3-(1-(2-(3-((4-(Dimethylphosphoryl)-6-fluoro-1H-indol-5-yl)oxy)phenyl)thiazol-4-yl)-1-hydroxyethyl)phenyl)propanoic acid], the “DSLS NBD1/3D Human Stability delta-T” value was “B (B: 5-10° C.)”.

In the case of `O=C(O)CCc1cccc(Cc2csc(-c3cccc(Oc4ccc5[nH]ccc5c4CO)c3)n2)c1` [Example 99, 3-(3-((2-(3-((4-(Hydroxymethyl)-1H-indol-5-yl)oxy)phenyl)thiazol-4-yl)methyl)phenyl)propanoic acid], the “DSLS NBD1/3D Human Stability delta-T” value is “B (B: 5-10° C.)”.

For `O=C(O)CCc1cccc(Cc2cnc(-c3cc(Oc4c(F)cc5[nH]ccc5c4F)ccc3F)[nH]2)c1F` [Example 100, 3-(3-((2-(5-((4,6-Difluoro-1H-indol-5-yl)oxy)-2-fluorophenyl)-1H-imidazol-5-yl)methyl)-2-fluorophenyl)propanoic acid], the “DSLS NBD1/3D Human Stability delta-T” value was “B (B: 5-10° C.)”.

In the case of `COC(=O)CCc1cccc(Cc2c[nH]c(-c3cc(Oc4c(F)cc5[nH]ccc5c4F)ccc3F)n2)c1` [Example 101, methyl 3-(3-((2-(5-((4,6-difluoro-1H-indol-5-yl)oxy)-2-fluorophenyl)-1H-imidazol-4-yl)methyl)phenyl)propanoate], the “DSLS NBD1/3D Human Stability delta-T” value was “C (C: ≤5° C.)”.

With `O=C(O)CCc1cccc(Cc2cnc(-c3cccc(Oc4c(F)cc5[nH]ccc5c4SC(F)(F)F)c3)[nH]2)c1` [Example 102, 3-(3-((2-(3-((6-fluoro-4-((trifluoromethyl)thio)-1H-indol-5-yl)oxy)phenyl)-1H-imidazol-5-yl)methyl)phenyl)propanoic acid], the “DSLS NBD1/3D Human Stability delta-T” value was “B (B: 5-10° C.)”.

On to `O=C(O)CCc1ccc(F)c(Cc2cnc(-c3cc(Oc4c(F)cc5[nH]ccc5c4F)ccc3F)[nH]2)c1` [Example 103, 3-(3-((2-(5-((4,6-difluoro-1H-indol-5-yl)oxy)-2-fluorophenyl)-1H-imidazol-5-yl)methyl)-4-fluorophenyl)propanoic acid], for which the “DSLS NBD1/3D Human Stability delta-T” value is reported as “B (B: 5-10° C.)”.

For `O=C(O)CCc1cccc(Cc2cnc(-c3cc(Oc4ccc5[nH]ccc5c4C(F)(F)F)ccc3F)[nH]2)c1` [Example 104, 3-(3-((2-(2-fluoro-5-((4-(trifluoromethyl)-1H-indol-5-yl)oxy)phenyl)-1H-imidazol-5-yl)methyl)phenyl)propanoic acid], the “DSLS NBD1/3D Human Stability delta-T” value is “B (B: 5-10° C.)”.

As to `Cc1c(Oc2ccc(F)c(-c3ncc(Cc4cc(F)cc(CCC(=O)O)c4)[nH]3)c2)c(F)c(F)c2[nH]ccc12` [Example 105, 3-(3-((2-(5-((6,7-difluoro-4-methyl-1H-indol-5-yl)oxy)-2-fluorophenyl)-1H-imidazol-5-yl)methyl)-5-fluorophenyl)propanoic acid], the “DSLS NBD1/3D Human Stability delta-T” value is on record as “B (B: 5-10° C.)”.

On to `Cc1c(Oc2ccc(F)c(-c3ncc(Cc4cc(F)cc(CCC(=O)O)c4)[nH]3)c2)ccc2[nH]ccc12` [Example 106, 3-(3-fluoro-5-((2-(2-fluoro-5-((4-methyl-1H-indol-5-yl)oxy)phenyl)-1H-imidazol-5-yl)methyl)phenyl)propanoic acid], for which the “DSLS NBD1/3D Human Stability delta-T” value was “B (B: 5-10° C.)”.

With `O=C(O)CCc1cccc(Cc2cnc(-c3cc(Oc4c(F)cc5[nH]ccc5c4Cl)ccc3F)[nH]2)c1` [Example 107, 3-(3-((2-(5-((4-chloro-6-fluoro-1H-indol-5-yl)oxy)-2-fluorophenyl)-1H-imidazol-5-yl)methyl)phenyl)propanoic acid], the “DSLS NBD1/3D Human Stability delta-T” value is reported as “B (B: 5-10° C.)”.

On to `Cc1c(Oc2ccc(F)c(-c3ncc(Cc4cc(F)cc(CCC(=O)O)c4)[nH]3)c2)c(F)cc2[nH]ccc12` [Example 108, 3-(3-fluoro-5-((2-(2-fluoro-5-((6-fluoro-4-methyl-1H-indol-5-yl)oxy)phenyl)-1H-imidazol-5-yl)methyl)phenyl)propanoic acid], for which the “DSLS NBD1/3D Human Stability delta-T” value is listed as “B (B: 5-10° C.)”.
